Data on 12 molecules can be found in paper PMC7865145, “Identification of existing pharmaceuticals and herbal medicines as inhibitors of SARS-CoV-2 infection” (Proceedings of the National Academy of Sciences of the …, 2021).

pIC50: −log10 of the molar value. Like-named read-outs stand apart in the source and are kept apart here.

Data set [1] in a line: Cytotoxicity study of compounds with Vero E6 cells (CCK-8). The conditions noted are these: African green monkey, Vero E6 cells, CC50 (μM).
Data set [2] has as its system SARS-CoV-2 (hCoV-19/Taiwan/4/2020). The data set is described as follows: microbe, parasite or virus in culture. The class given is cell-based.
Data set [3] addresses Papain-like protease (nsp3) of SARS-CoV-2 (Severe acute respiratory syndrome coronavirus 2, UniProt P0DTD1). The data set is described as follows: biochemical. The class given is biochemical. Particulars: for inhibition at 100 µM: read-out: Inhibition % at 100 uM of compounds, Papain-like protease (nsp3).
For data set [4], the system named is SARS-CoV-2. The data set is described as follows: Quantification of SARS-CoV-2 via antibody staining (viral NP protein) in Vero E6 cells. The class given is cell-based. The conditions noted are these: for pIC50: viral titer by antinucleocapsid antibody.
Data set [5] concerns Vero E6 cells. The data set is described as follows: Cytotoxicity study of compounds with Vero E6 cells (CCK-8).
A further data set can be described thus: in vitro. The conditions noted are these: African green monkey, CC50 (μM); for CC50: Vero E6 cells.
The subject of data set [6] is SARS-CoV-2. In words: In vivo anti-SARS-CoV-2 assay, lung virus load. The conditions noted are these: female golden Syrian hamsters, intranasal infection day 0, oral twice a day 30 mg/kg/d for 3 d, n = 5.
For data set [7], the system named is Vero E6 cells.
The conditions of data set [8]: hamster, in vivo.
Data set [9] deals with nsp7-nsp8-nsp12 complex (Rdrp) of SARS-CoV-2 (Severe acute respiratory syndrome coronavirus 2, UniProt P0DTD1). In words: Activity assay for SARS-CoV-2 RNA-dependent RNA polymerase. It counts as biochemical.
Where [10] appears, read: Severe acute respiratory syndrome coronavirus 2, Vero C1008, 72 h, read-out: CPE (μM) D3.
The mark [11] stands for this setting: 100 uM, FRET-based enzymatic assay, 3 independent experiments, N.I. = no inhibition.
Setting [12] is: Severe acute respiratory syndrome coronavirus 2, Vero C1008, 100 PFU of SARS-CoV-2 (multiplicity of infection 0.025) in Vero E6 cells.
Setting [13] is: Severe acute respiratory syndrome coronavirus 2, Vero C1008, minimal dose that showed antiinfective effect after virus challenge, incubation 72 h (D3), Vero E6, read-out: CPE (μM) D3.
Where [14] appears, read: Severe acute respiratory syndrome coronavirus 2, Vero C1008, minimal dose that showed antiinfective effect after virus challenge, incubation 120 h (D5), Vero E6, N.I. = no inhibition, dash = cytotoxicity was observed, read-out: CPE (μM) D5.
Where [15] appears, read: 100 PFU of SARS-CoV-2 (multiplicity of infection 0.025) in Vero E6 cells.
[16] abbreviates: Severe acute respiratory syndrome coronavirus 2, Vero C1008, 120 h, […], N.I. = no inhibition, dash = cytotoxicity was observed, read-out: CPE (μM) D5.

In general, pIC50 refers to −log10 of the IC50, conventionally taken in molar units. For orientation: inhibition means how much of the control response was suppressed.

In turn, `CC(C)(C)c1cc(C(C)(C)C)c(NC(=O)c2c[nH]c3ccccc3c2=O)cc1O` [Ivacaftor 9, Ivacaftor] yielded a CC50 at 24 h in [1] of 12.9 µM. Moreover, the minimal effective concentration in [2] (setting [10]) is 5 µM. The “CPE (μM) D5” value in data set [2] ([…], N.I. = no inhibition, dash = cytotoxicity was observed) is reported as “N.I”. Further, the “Inhibition % at 100 uM of compounds, Papain-like protease (nsp3)” value (“Inhibition % at 100 uM of compounds” for short) in [3] (setting [11]) is “N.I”. The molecule also gave a pIC50 with SARS-CoV-2 [4] (setting [12]) of 5.43.
In the case of `CC[C@H](C)[C@H]1O[C@]2(CC[C@@H]1C)C[C@@H]1C[C@@H](C/C=C(\C)[C@@H](O[C@H]3C[C@H](OC)[C@@H](O[C@H]4C[C@H](OC)[C@@H](O)[C@H](C)O4)[C@H](C)O3)[C@@H](C)/C=C/C=C3\CO[C@@H]4[C@H](O)C(C)=C[C@@H](C(=O)O1)[C@]34O)O2` [Ivermectin 6, Ivermectin], in the data set with Vero E6 cells [5] (Vero E6), the “cytotoxicity in the cell-based assay” value is “high cytotoxicity”. Also, the minimal effective concentration in data set [2] (setting [10]) came to 2.5 µM. Besides, the “Inhibition % at 100 uM of compounds” value in data set [3] (setting [11]) was “N.I”. The same molecule had a pIC50 in the data set on SARS-CoV-2 [4] (setting [12]) of 5.39. For the same molecule, in the data set “in vitro”, the CC50 stood at 13.2 µM.
For `Cc1c(O)cccc1C(=O)N[C@@H](CSc1ccccc1)[C@H](O)CN1C[C@H]2CCCC[C@H]2C[C@H]1C(=O)NC(C)(C)C` [Nelfinavir 1, Nelfinavir], the CC50 at 24 h in data set [1] turned out to be 12.3 µM. Moreover, the minimal effective concentration was 5 µM in data set [2] (setting [13]) and 10 µM in data set [2] (setting [14]). Further, in [3] (setting [11]), the inhibition at 100 µM stood at 3.5%. In the data set on SARS-CoV-2 [4] (setting [12]), this molecule showed a pIC50 of 5.48. Moreover, the “fold higher anti-SARS-CoV-2 activity than boceprevir in the cell-based assay” value with SARS-CoV-2 [4] (Vero E6) came out at 15 fold. Also, the “lung virus load vs control (drugs)” value in the data set with SARS-CoV-2 [6] is given as “good antiviral effects”.
In [1], `OC1(c2ccc(Cl)c(C(F)(F)F)c2)CCN(CCCC(c2ccc(F)cc2)c2ccc(F)cc2)CC1` [Penfluridol 11, Penfluridol] registered a CC50 at 24 h of 12.9 µM. The minimal effective concentration is 5 µM in data set [2] (setting [13]) and 10 µM in [2] (setting [14]). The “Inhibition % at 100 uM of compounds” value in [3] (setting [11]) is on record as “N.I”. Also, the pIC50 in the data set on SARS-CoV-2 [4] (setting [15]) and in the data set with SARS-CoV-2 [4] (setting [12]) was 5.62 each time.
On to `CO[C@@H]1[C@@H](OC)[C@H](C)[C@@](O)(CC(=O)O)O[C@H]1[C@H](C)[C@H]1O[C@@]2(CC[C@@](C)([C@H]3CC[C@@](C)([C@@H]4O[C@@H]([C@H]5O[C@](C)(O)[C@H](C)C[C@@H]5C)C[C@@H]4O[C@@H]4C[C@H](OC)[C@@H](OC)[C@H](C)O4)O3)O2)C[C@H](O)[C@H]1C` [Maduramicin 15, Maduramicin], for which the minimal effective concentration in [2] (setting [10]) amounted to 0.039 µM; in [2] (setting [16]) it was 0.117 µM. For the same molecule, in [3] (setting [11]), the “Inhibition % at 100 uM of compounds” value was “N.I”. Moreover, the pIC50 with SARS-CoV-2 [4] (setting [15]) was 5.89; in the data set on SARS-CoV-2 [4] (setting [12]) it was 5.88. In addition, the “selectivity index (antiviral effect vs cytotoxicity)” value with SARS-CoV-2 [4] (Vero E6, CC50 vs IC50) is reported as “no selectivity”. The CC50 in the data set “in vitro” is 6.39 µM.
As for `Nc1nc2nc[nH]c2c(=S)[nH]1` [Thioguanine 3, Thioguanine], the CC50 at 24 h in [1] was found to be 25.4 µM. Besides, the minimal effective concentration in [2] (setting [13]) came to 1.25 µM; in data set [2] (setting [14]) it was 2.5 µM. Further, the negative logarithm of the IC50 (pIC50) is 5.77 in the data set on SARS-CoV-2 [4] (setting [15]) and 5.78 in the data set with SARS-CoV-2 [4] (setting [12]). In addition, in the data set on SARS-CoV-2 [6], the “lung virus load vs control (drugs)” value is listed as “no significant antiinfective effect”.
For the molecule `CC1=C(C(=O)OC(C)C)C(c2cccc([N+](=O)[O-])c2)C(C(=O)OC2CN(C(c3ccccc3)c3ccccc3)C2)=C(N)N1` (centres unmarked) [Azelnidipine 10, Azelnidipine], the minimal effective concentration in [2] (setting [13]) stood at 5 µM. Moreover, the “CPE (μM) D5” value in [2] (minimal dose that showed antiinfective effect after virus challenge, incubation 120 h (D5), Vero E6, N.I. = no inhibition, dash = cytotoxicity was observed) is given as “N.I”. Moreover, the “Inhibition % at 100 uM of compounds” value in data set [3] (setting [11]) is on record as “N.I”. For the same molecule, the pIC50 with SARS-CoV-2 [4] (setting [15]) and in the data set with SARS-CoV-2 [4] (setting [12]) was 5.28 each time. Moreover, the CC50 at 24 h in “in vitro” came to 12.9 µM.
As for `OC(c1cc(C(F)(F)F)nc2c(C(F)(F)F)cccc12)C1CCCCN1` (centres unmarked) [Mefloquine 8, Mefloquine], the results for the minimal effective concentration in [2] (setting [13]) and in data set [2] (setting [14]) were 5 µM and 10 µM, respectively. Besides, in data set [3] (setting [11]), the “Inhibition % at 100 uM of compounds” value is recorded as “N.I”. Moreover, the pIC50 with SARS-CoV-2 [4] (setting [15]) and in the data set on SARS-CoV-2 [4] (setting [12]) was 5.49 throughout. Besides, in the data set on SARS-CoV-2 [6], the “lung virus load vs control (drugs)” value is listed as “significantly reduced viral load”.
As to `CC[C@@]1([C@@H]2O[C@@H]([C@H]3O[C@@](O)(CO)[C@H](C)C[C@@H]3C)C[C@@H]2C)CC[C@H]([C@]2(C)CC[C@]3(C[C@H](O)[C@@H](C)[C@@H]([C@@H](C)[C@@H](OC)[C@H](C)C(=O)O)O3)O2)O1` [Monensin 14, Monensin], the CC50 in the data set with Vero E6 cells [5] (Vero E6 cells) was found to be 6.6 µM; in the data set “in vitro”, 6.66 µM. The minimal effective concentration turned out to be 0.117 µM in data set [2] (setting [10]) and 2.5 µM in data set [2] (setting [16]). Further, the “Inhibition % at 100 uM of compounds” value in data set [3] (setting [11]) is given as “N.I”. In addition, the pIC50 in the data set with SARS-CoV-2 [4] (setting [15]) was 5.19; with SARS-CoV-2 [4] (setting [12]) it was 5.20. Besides, in the data set on SARS-CoV-2 [4] (Vero E6, CC50 vs IC50), the “selectivity index (antiviral effect vs cytotoxicity)” value is reported as “no selectivity”.
`CO/N=C1\C[C@]2(C[C@@H]3C[C@@H](C/C=C(\C)C[C@@H](C)/C=C/C=C4\CO[C@@H]5[C@H](O)C(C)=C[C@@H](C(=O)O3)[C@]45O)O2)O[C@H](/C(C)=C/C(C)C)[C@H]1C` [Moxidectin 7, Moxidectin]: the minimal effective concentration in data set [2] (setting [13]) amounted to 5 µM; in data set [2] (setting [14]), 10 µM. Besides, the “Inhibition % at 100 uM of compounds” value in data set [3] (setting [11]) is “N.I”. Moreover, the “cytotoxicity in the cell-based assay” value in the data set with Vero E6 cells [7] is “high cytotoxicity”. Besides, the CC50 in the data set with Vero E6 cells [7] (African green monkey, 24 h) came to 6.9 µM. In addition, the pIC50 was 5.51 in the data set on SARS-CoV-2 [4] (setting [15]) and 5.50 in the data set on SARS-CoV-2 [4] (setting [12]). Moreover, in the data set “in vitro”, the CC50 at 24 h is 6.88 µM.
`CC[C@@H](C(=O)[C@@H](C)[C@@H](O)[C@H](C)[C@@H]1O[C@@H]([C@@H](CC)C(=O)O)CC[C@@H]1C)[C@H]1O[C@]2(C=C[C@@H](O)[C@]3(CC[C@@](C)([C@H]4CC[C@](O)(CC)[C@H](C)O4)O3)O2)[C@H](C)C[C@@H]1C` [Salinomycin 13, Salinomycin]: the figures for the minimal effective concentration in data set [2] (setting [10]) and in data set [2] (setting [16]) were 0.039 µM and 0.156 µM, respectively. Also, the inhibition at 100 µM in [3] came out at 9.4%. Also, the “body-weight change after 3-d treatment” value in data set [8] is on record as “higher weight loss than the control group”. Besides, the pIC50 in the data set on SARS-CoV-2 [4] (setting [15]) and in the data set on SARS-CoV-2 [4] (setting [12]) was 9.32 in each case. Besides, in the data set with SARS-CoV-2 [4] (African green monkey, Vero E6, CC50 vs IC50, read-out: selectivity index (antiviral effect vs cytotoxicity)), the selectivity ratio is more than 100. In addition, the CC50 in the data set “in vitro” was 13.1 µM. The “lung virus load vs control (drugs)” value in the data set with SARS-CoV-2 [6] was “no significant antiinfective effect”.
On to `Nc1nc(=S)c2ncn([C@@H]3O[C@H](COP(=O)(O)OP(=O)(O)OP(=O)(O)O)[C@@H](O)[C@H]3O)c2[nH]1` [TGTP, thioguanosine triphosphate], for which, in [9], the “inhibition against Rdrp in vitro” value is given as “no inhibition”.
